Results from article PMC12209172, “Poly(ADP-ribose)polymerase 2 is zinc-dependent enzyme and nucleosome reorganizer” (Cellular and Molecular Life Sciences: CMLS, 2025).
“And” between values parts separate entries of the source, which are not always exact repeats. Identical values can stand only once.

Columns and labels:
[1] = molecular target: T1, WGR domain of PARP2 (Homo sapiens, UniProt Q9UGN5); assay: Tryptophan fluorescence spectroscopy of the WGR domain titrated with divalent cations (one site binding fit); conditions: for fluorescence intensity (Fig 3d): listed as Zn
T1 construct: WGR domain of PARP2 (residues 77–220) into pET-15b-TEV expression vector; 6xHis (pET-15b-TEV) (N, cleaved yes); made in house; host or cells: Escherichia coli Rosetta2 (DE3) pLysS
Experimental: Fluorescence spectra of Trp residues were measured in the 300–450 nm spectral range at the 270 nm excitation wavelengths using the Cary Eclipse spectrofluorometer (Varian/Agilent, USA).
Fluorescence of WGR domain was measured at 0.5 or 5 µM in a buffer containing 10 mM HEPES (pH 8.0), 150 mM NaCl and 0.73 or 7.3 µM EDTA, respectively. Solutions were complemented with ZnCl2 (0.2–308 µM) or MgCl2 (15–5000 µM), or CaCl2 (8–5000 µM) dissolved in a buffer containing 10 mM HEPES (pH 8.0), 150 mM NaCl. Intensity of the measured spectra was corrected for the concomitant dilution of the WGR domain. Integral intensities (Ifl.) of fluorescence spectra were averaged over three independent measurements (mean ± SEM) and used to plot the corresponding Ifl. vs. ion concentration graphs. Data were fitted with the one site binding equation:2 [drawing 2]
Where C is the concentration of divalent cations, Kd is a dissociation constant of the complex, Im and Ifl0 are maximal and initial values of Ifl., respectively.

[2] = molecular target: T2, PARP2-nucleosome complexes (Mus musculus, UniProt O88554); assay: spFRET microscopy in solution of nucleosomes and PARP2-nucleosome complexes; conditions: for EPR centre of the structural state of nucleosomes: PARP2 plus 0.3 mM Zn2+
T2 construct: Recombinant mouse full-length PARP2 was obtained in the baculovirus expression system; made in house; host or cells: PARP2: Sf9 insect cells (baculovirus), gift of Prof; O. Lavrik; nucleosomes assembled in house
Experimental: In the study of nucleosome-PARP2 interactions, nucleosomes (1-2 nM) were incubated with PARP2 (12.5-200 nM) in buffer A (50 mM Tris-HCl pH 7.5; 40 mM NaCl; 0.5 mM β-mercaptoethanol (β-ME); 0.1% NP40) at 25 °C for 30 min. When indicated, buffer A was supplemented with 50 μM - 5 mM ZnCl2, 5 mM CaCl2 or 5 mM MgCl2. […] […] measurements in solution were performed as described previously. Each measured single nucleosome was characterized by FRET between Cy3 and Cy5 labels calculated as a proximity ratio (EPR):1 [drawing 1] Where I3 and I5 are fluorescence intensities of Cy3 and Cy5, respectively, and coefficients 0.19 and 0.81 provide correction for the spectral cross-talk between Cy3 and Cy5 detection channels. EPR is a FRET efficiency not corrected for quantum yields of labels and an instrumentation factor. Relative frequency distributions of nucleosomes by EPR values, i.e. EPR profiles, (2000-5000 nucleosomes per experiment; 3 independent experiments) were plotted and further analyzed as a superposition of several normal (Gaussian) distributions for nucleosomes or nucleosome-PARP2 complexes. Since nucleosomes tend to aggregate when PARP2 is added (especially at high concentrations), treatment of signals measured from nucleosomes and their complexes included mandatory rejection of signals from any aggregates that are clearly recognized due to their slow diffusion rate and/or abnormally high fluorescence intensity.

[3] = molecular target: T3, PARP2 (Mus musculus, UniProt O88554); assay: Western blot analysis of NAD+-dependent PARylation by PARP2 in PARP2-nucleosome complexes; assay type: biochemical; design: Recombinant mouse full-length PARP2 was obtained in the baculovirus expression system; made in house; host or cells: PARP2: Sf9 insect cells (baculovirus), gift of Prof; O. Lavrik; nucleosomes assembled in house; conditions: Mg2+ 5 mM or Zn2+ 0.3 mM; PARP2 100 nM, nucleosomes 3 nM, NAD+ 0-5 µM
Experimental: Probes were subjected to electrophoresis in 4–12% bis-Tris gradient gel in the NuPAGE™ MES SDS Running Buffer at 130 V. […] The membrane was incubated for 60 min in the PBS-T solution supplemented with the 5% skimmed milk. Then the membrane was incubated with mouse monoclonal antibodies 10 H followed by incubation with the secondary anti-mouse antibodies conjugated with horseradish peroxidase (Bio-Rad, Hercules, CA, USA). The washing procedure was carried out after each step of incubation. Immunodetection was performed using the Super Signal West Pico Chemiluminescent Substrate (Thermo Fisher Scientific, Waltham, MA, USA) for 3 min. The Western blot experiments were performed in three independent repetitions.

[4] = molecular target: T3, PARP2; assay: Circular dichroism spectroscopy of PARP2 (BeStSel secondary structure analysis); design: Recombinant mouse full-length PARP2 was obtained in the baculovirus expression system; made in house; host or cells: Sf9 insect cells (baculovirus); gift of Prof; O. Lavrik; conditions: 0.3 mM Zn2+, 0.7 mM Ca2+ or 0.7 mM Mg2+
Experimental: CD spectra of proteins were recorded within the 190-250 nm spectral range with 0.2 nm step using Jasco-810 spectrophotometer (Jasco, Japan) and the quartz […]® cuvette of 0.1 mm thickness (Hellma, Germany. Secondary structure analysis was performed using BeStSel webserver. To improve the reliability of the analysis, the content of canonical secondary structures of various types was predicted for 3-6 independent measurements, and the values were averaged. The statistical significance of the secondary structure difference was determined using the multiple t-test.

T1 sequence (Q9UGN5 77-220): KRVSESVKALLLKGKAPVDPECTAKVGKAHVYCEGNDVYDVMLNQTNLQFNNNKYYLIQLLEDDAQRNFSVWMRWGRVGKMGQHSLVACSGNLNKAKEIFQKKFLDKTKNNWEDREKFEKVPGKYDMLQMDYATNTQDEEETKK

[Cl-].[Cl-].[Zn+2] [Zn2+, ZnCl2]
Zn2+ concentration at which changes in the fluorescence of Trp residues of the WGR domain were observed ([1]; Figure S4): 0.4 to 5 µM
Kd ([1]; Trp fluorescence, one site binding fit, 10 mM HEPES pH 8.0, 150 mM NaCl, residual EDTA present, read-out: dissociation constant of the divalent cation-WGR domain complex): 2000 nM and ~2000 nM
effect of ions on intensity of tryptophan fluorescence of the WGR domain ([1]; WGR domain 5 µM): considerably increased
fluorescence intensity (Fig 3d) ([1]; wavelength 330.000, 5.9 uM Zn): 64.607 and 70.927 and 88.925 and 69.072
fluorescence intensity (Fig 3d) ([1]; wavelength 330.000, 11.6 uM Zn): 118.714 and 102.531 and 101.352 and 109.279
fluorescence intensity (Fig 3d) ([1]; wavelength 330.000, 17.2 uM): 125.078 and 114.327 and 116.086 and 114.151
fluorescence intensity (Fig 3d) ([1]; wavelength 330.000, 22.1 uM): 125.812 and 115.097 and 117.722 and 114.227
fluorescence intensity (Fig 3d) ([1]; wavelength 330.000, 303 uM + 7 mM EDTA): 42.022 and 51.928 and 42.125 and 50.264
fluorescence intensity (Fig 3d) ([1]; wavelength 330.000, 308 uM): 125.859 and 119.818 and 119.168 and 117.804
fluorescence intensity (Fig 3d) ([1]; wavelength 331.070, 5.9 uM Zn): 65.518 and 73.717 and 91.313 and 71.214
fluorescence intensity (Fig 3d) ([1]; wavelength 331.070, 11.6 uM Zn): 121.141 and 105.018 and 103.680 and 111.886
fluorescence intensity (Fig 3d) ([1]; wavelength 331.070, 17.2 uM): 128.785 and 116.958 and 116.866 and 116.180
fluorescence intensity (Fig 3d) ([1]; wavelength 331.070, 22.1 uM): 127.402 and 115.749 and 117.457 and 117.342
fluorescence intensity (Fig 3d) ([1]; wavelength 331.070, 303 uM + 7 mM EDTA): 42.915 and 54.693 and 43.072 and 51.479
fluorescence intensity (Fig 3d) ([1]; wavelength 331.070, 308 uM): 129.366 and 122.539 and 123.005 and 119.729
fluorescence intensity (Fig 3d) ([1]; wavelength 332.000, 5.9 uM Zn): 66.418 and 75.386 and 92.296 and 72.347
fluorescence intensity (Fig 3d) ([1]; wavelength 332.000, 11.6 uM Zn): 123.485 and 106.394 and 106.147 and 113.513
fluorescence intensity (Fig 3d) ([1]; wavelength 332.000, 17.2 uM): 128.874 and 118.064 and 118.851 and 118.214
fluorescence intensity (Fig 3d) ([1]; wavelength 332.000, 22.1 uM): 131.124 and 117.614 and 119.985 and 119.070
fluorescence intensity (Fig 3d) ([1]; wavelength 332.000, 303 uM + 7 mM EDTA): 43.600 and 54.088 and 43.890 and 52.288
fluorescence intensity (Fig 3d) ([1]; wavelength 332.000, 308 uM): 130.593 and 122.360 and 123.201 and 121.123
fluorescence intensity (Fig 3d) ([1]; wavelength 333.070, 5.9 uM Zn): 68.103 and 76.819 and 93.790 and 71.930
fluorescence intensity (Fig 3d) ([1]; wavelength 333.070, 11.6 uM Zn): 125.333 and 108.991 and 107.827 and 116.743
fluorescence intensity (Fig 3d) ([1]; wavelength 333.070, 17.2 uM): 132.720 and 120.694 and 121.118 and 119.035
fluorescence intensity (Fig 3d) ([1]; wavelength 333.070, 22.1 uM): 132.619 and 121.520 and 120.252 and 122.459
fluorescence intensity (Fig 3d) ([1]; wavelength 333.070, 303 uM + 7 mM EDTA): 43.562 and 54.895 and 44.695 and 52.661
fluorescence intensity (Fig 3d) ([1]; wavelength 333.070, 308 uM): 133.279 and 127.119 and 125.798 and 122.486
fluorescence intensity (Fig 3d) ([1]; wavelength 334.000, 5.9 uM Zn): 68.621 and 78.226
fluorescence intensity (Fig 3d) ([1]; wavelength 334.000, 11.6 uM Zn): 126.789 and 111.115
effect of ions on the nucleosome structure ([2]; NP nucleosomes without PARP2, 5 mM ions): minimally affect
EPR centre of the new peak in the EPR profile ([2]; NP nucleosomes, PARP2 plus Zn2+): 0.4
EPR centre of the structural state of nucleosomes ([2]; Nd nucleosomes): 0.5
EPR centre of the structural state of nucleosomes ([2]; Nm nucleosomes): 0.4
Zn2+ concentration above which the structure of PARP2-nucleosome complexes is affected ([2]; PARP2 50 nM, NP nucleosomes): higher than 75 µM
Zn2+ concentration at which all the complexes are converted to the altered conformation ([2]; PARP2 50 nM, NP nucleosomes): 150 µM
effect of ions on the structure of nucleosomes in PARP2-nucleosome complexes ([2]; PARP2 50 nM, Zn2+ 0.3 mM, Ca2+ 5 mM or Mg2+ 5 mM): induce alterations in the structure of PARP2-nucleosome complexes
effect of Zn2+ on the affinity of PARP2 to nucleosomes ([2]; compared with EMSA in the absence of Zn2+): not significantly affected
effect of ions on efficiency of PARP2-mediated PARylation [3]: decrease
effect of ions on the CD spectrum / conformation of PARP2 [4]: small conformational changes
